In patent US20230041743A1, “1,8-NAPHTHYRIDIN-2-ONE COMPOUNDS FOR THE TREATMENT OF AUTOIMMUNE DISEASE” (Hoffmann-La Roche Inc., priority 2019, published 2023):

Biological target: T1, human TLR9 (Homo sapiens, UniProt Q9NR96)
T1 construct: host or cells: HEK293 (HEK-Blue hTLR9)
T1 sequence (Q9NR96 26-1032): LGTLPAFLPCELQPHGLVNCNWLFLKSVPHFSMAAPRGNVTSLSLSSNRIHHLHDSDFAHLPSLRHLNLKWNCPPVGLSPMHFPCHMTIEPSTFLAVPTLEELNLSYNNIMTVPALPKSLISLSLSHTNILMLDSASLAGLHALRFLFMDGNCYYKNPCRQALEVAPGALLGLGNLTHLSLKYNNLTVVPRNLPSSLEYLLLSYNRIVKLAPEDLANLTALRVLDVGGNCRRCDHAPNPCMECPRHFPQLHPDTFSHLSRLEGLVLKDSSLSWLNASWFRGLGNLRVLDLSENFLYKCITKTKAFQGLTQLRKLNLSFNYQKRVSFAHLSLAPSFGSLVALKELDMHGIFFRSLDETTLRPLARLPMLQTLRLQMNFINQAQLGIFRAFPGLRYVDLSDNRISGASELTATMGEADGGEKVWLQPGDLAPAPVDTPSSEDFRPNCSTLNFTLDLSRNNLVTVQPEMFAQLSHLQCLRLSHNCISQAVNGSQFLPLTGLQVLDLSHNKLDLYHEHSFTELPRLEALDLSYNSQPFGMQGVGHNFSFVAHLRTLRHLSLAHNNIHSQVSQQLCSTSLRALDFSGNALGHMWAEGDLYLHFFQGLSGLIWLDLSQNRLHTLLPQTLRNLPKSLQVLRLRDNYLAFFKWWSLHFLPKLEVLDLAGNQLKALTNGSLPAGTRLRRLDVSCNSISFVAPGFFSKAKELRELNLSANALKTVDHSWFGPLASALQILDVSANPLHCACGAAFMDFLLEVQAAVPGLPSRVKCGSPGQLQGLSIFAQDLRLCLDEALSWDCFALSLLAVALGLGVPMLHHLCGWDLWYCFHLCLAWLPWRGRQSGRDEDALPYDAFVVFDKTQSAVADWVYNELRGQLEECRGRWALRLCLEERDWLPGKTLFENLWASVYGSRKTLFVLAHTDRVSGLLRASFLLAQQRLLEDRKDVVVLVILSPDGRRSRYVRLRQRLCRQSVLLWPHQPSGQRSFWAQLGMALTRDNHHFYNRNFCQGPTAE
Assay: HEK293-Blue-hTLR-9 cells assay (SEAP reporter, ODN2006 stimulation)
Type: cell-based
Settings: HEK293-Blue-hTLR9 cells, ODN2006 ligand, 20 hrs incubation; read-out: HEK/hTLR9 IC50
Text: HEK293-Blue-hTLR-9 Cells Assay:
A stable HEK293-Blue-hTLR-9 cell line was purchased from InvivoGen (Cat. #: hkb-htlr9, San Diego, Calif., USA). These cells were originally designed for studying the stimulation of human TLR9 by monitoring the activation of NF-κB. A SEAP (secreted embryonic alkaline phosphatase) reporter gene was placed under the control of the IFN-β minimal promoter fused to five NF-κB and AP-1-binding sites. The SEAP was induced by activating NF-κB and AP-1 via stimulating HEK-Blue hTLR9 cells with TLR9 ligands. Therefore the reporter expression was declined by TLR9 antagonist under the stimulation of a ligand, such as ODN2006 (Cat. #: tlrl-2006-1, Invivogen, San Diego, Calif., USA), for incubation of 20 hrs. The cell culture supernatant SEAP reporter activity was determined using QUANTI-Blue™ kit (Cat. #: rep-qb1, Invivogen, San Diego, Calif., USA) at a wavelength of 640 nm, a detection medium that turns purple or blue in the presence of alkaline phosphatase.
HEK293-Blue-hTLR9 cells were incubated at a density of 250,000˜450,000 cells/mL in a volume of 170 μL in a 96-well plate in Dulbecco's Modified Eagle's medium (DMEM) containing 4.5 g/L glucose, 50 U/mL penicillin, […], 2 mM L-glutamine, 10% (v/v) heat-inactivated fetal bovine serum with addition of 20 μL test compound in a serial dilution in the presence of final DMSO at 1% and 10 μL of 20 uM ODN2006 in above DMEM, perform incubation under 37° C. in a CO2 incubator for 20 hrs. Then 20 μL of the supernatant from each well was incubated with 180 μL Quanti-blue substrate solution at 37° C. for 2 h and the absorbance was read at 620˜655 nm using a spectrophotometer. The signaling pathway that TLR9 activation leads to downstream NF-κB activation has been widely accepted, and therefore similar reporter assay was modified for evaluating TLR9 antagonist.

Row | SMILES | IC50 [nM]
1 | C[C@@H]1CN(c2cc(=O)n(C)c3ncccc23)C[C@@H]2c3ccc(N4CCC[C@@H](N)C4)cc3CN12 [Example 16, 4-[(4R,10bS)-8-[(3R)-3-amino-1-piperidyl]-4-methyl-3,4,6,10b-tetrahydro-1H-pyrazino[2,1-a]isoindol-2-yl]-1-methyl-1,8-naphthyridin-2-one] | 101
2 | C[C@@H]1CN(c2cc(=O)n(C)c3ncccc23)C[C@@H]2c3ccc(OCCN(C)C)cc3CN12 [Example 23, 4-[(4R,10bS)-8-[2-(dimethylamino)ethoxy]-4-methyl-3,4,6,10b-tetrahydro-1H-pyrazino[2,1-a]isoindol-2-yl]-1-methyl-1,8-naphthyridin-2-one] | 213
3 | C[C@@H]1CN(c2ccc3c(c2)CN2[C@H](C)CN(c4cc(=O)n(C)c5ncccc45)C[C@H]32)CCN1 [Example 14, 4-[(4R,10bS)-4-methyl-8-[(3R)-3-methylpiperazin-1-yl]-3,4,6,10b-tetrahydro-1H-pyrazino[2,1-a]isoindol-2-yl]-1-methyl-1,8-naphthyridin-2-one] | 144
4 | COC[C@@H]1CNCCN1c1ccc2c(c1)CN1[C@H](C)CN(c3cc(=O)n(C)c4ncccc34)C[C@H]21 [Example 10, 4-[(4R,10bS)-8-[(2S)-2-(methoxymethyl)piperazin-1-yl]-4-methyl-3,4,6,10b-tetrahydro-1H-pyrazino[2,1-a]isoindol-2-yl]-1-methyl-1,8-naphthyridin-2-one] | 248
5 | C[C@@H]1CN(c2cc(=O)n(C)c3ncccc23)C[C@@H]2c3ccc(N4CC(C)(N)C4)cc3CN12 [Example 1, 4-[(4R,10bS)-8-(3-amino-3-methyl-azetidin-1-yl)-4-methyl-3,4,6,10b-tetrahydro-1H-pyrazino[2,1-a]isoindol-2-yl]-1-methyl-1,8-naphthyridin-2-one] | 262
6 | C[C@@H]1CN(c2cc(=O)n(C)c3ncccc23)C[C@@H]2c3ccc([C@H]4CC[C@@H](N5CCOCC5)CC4)cc3CN12 [Example 27B, 4-[(4R,10bS)-4-methyl-8-(cis-4-morpholinocyclohexyl)-3,4,6,10b-tetrahydro-1H-pyrazino[2,1-a]isoindol-2-yl]-1-methyl-1,8-naphthyridin-2-one] | 105
7 | C[C@@H]1CN(c2cc(=O)n(C)c3ncccc23)C[C@@H]2c3ccc(N4CCC(C)(N)CC4)cc3CN12 [Example 18, 4-[(4R,10bS)-8-(4-amino-4-methyl-1-piperidyl)-4-methyl-3,4,6,10b-tetrahydro-1H-pyrazino[2,1-a]isoindol-2-yl]-1-methyl-1,8-naphthyridin-2-one] | 163
8 | C[C@@H]1CN(c2cc(=O)n(C)c3ncccc23)C[C@@H]2c3ccc(N4CC5(CNCCO5)C4)cc3CN12 [Example 3, 4-[(4R,10bS)-4-methyl-8-(5-oxa-2,8-diazaspiro[3.5]nonan-2-yl)-3,4,6,10b-tetrahydro-1H-pyrazino[2,1-a]isoindol-2-yl]-1-methyl-1,8-naphthyridin-2-one] | 325
9 | C[C@@H]1CN(c2cc(=O)n(C)c3ncccc23)C[C@@H]2c3ccc([C@H]4CC[C@H](N5CCOCC5)CC4)cc3CN12 [Example 27A, 4-[(4R,10bS)-4-methyl-8-(trans-4-morpholinocyclohexyl)-3,4,6,10b-tetrahydro-1H-pyrazino[2,1-a]isoindol-2-yl]-1-methyl-1,8-naphthyridin-2-one] | 99
10 | C[C@@H]1CN(c2cc(=O)n(C)c3ncccc23)C[C@@H]2c3ccc(N4C[C@@H]5C[C@H]4CN5)cc3CN12 [Example 19, 4-[(4R,10bS)-8-[(1S,4S)-2,5-diazabicyclo[2.2.1]heptan-2-yl]-4-methyl-3,4,6,10b-tetrahydro-1H-pyrazino[2,1-a]isoindol-2-yl]-1-methyl-1,8-naphthyridin-2-one] | 116
11 | CCn1c(=O)cc(N2C[C@@H](C)N3Cc4cc(N5C[C@@H](N)[C@H](OC)C5)ccc4[C@H]3C2)c2cccnc21 [Example 29, 4-[(4R,10bS)-8-[(3R,4R)-3-amino-4-methoxy-pyrrolidin-1-yl]-4-methyl-3,4,6,10b-tetrahydro-1H-pyrazino[2,1-a]isoindol-2-yl]-1-ethyl-1,8-naphthyridin-2-one] | 340
12 | C[C@@H]1CN(c2cc(=O)n(C)c3ncccc23)C[C@@H]2c3ccc(N4CCOC5(CNC5)C4)cc3CN12 [Example 11, 4-[(4R,10bS)-4-methyl-8-(5-oxa-2,8-diazaspiro[3.5]nonan-8-yl)-3,4,6,10b-tetrahydro-1H-pyrazino[2,1-a]isoindol-2-yl]-1-methyl-1,8-naphthyridin-2-one] | 88
13 | C[C@@H]1CN(c2cc(=O)n(C)c3ncccc23)C[C@@H]2c3ccc(N4CC[C@@](C)(N)C4)cc3CN12 [Example 4, 4-[(4R,10bS)-8-[(3R)-3-amino-3-methyl-pyrrolidin-1-yl]-4-methyl-3,4,6,10b-tetrahydro-1H-pyrazino[2,1-a]isoindol-2-yl]-1-methyl-1,8-naphthyridin-2-one] | 127
14 | C[C@@H]1CN(c2cc(=O)n(C)c3ncccc23)C[C@@H]2c3ccc(N4CCN[C@@H](C)C4)cc3CN12 [Example 13, 4-[(4R,10bS)-4-methyl-8-[(3S)-3-methylpiperazin-1-yl]-3,4,6,10b-tetrahydro-1H-pyrazino[2,1-a]isoindol-2-yl]-1-methyl-1,8-naphthyridin-2-one] | 186
15 | C[C@@H]1CN(c2cc(=O)n(C)c3ncccc23)C[C@@H]2c3ccc(N4C[C@@H](N)[C@@H](F)C4)cc3CN12 [Example 7, 4-[(4R,10bS)-8-[(3R,4S)-3-amino-4-fluoro-pyrrolidin-1-yl]-4-methyl-3,4,6,10b-tetrahydro-1H-pyrazino[2,1-a]isoindol-2-yl]-1-methyl-1,8-naphthyridin-2-one] | 247
16 | C[C@@H]1CN(c2cc(=O)n(C)c3ncccc23)C[C@@H]2c3ccc(C4CCNC4)cc3CN12 (stereo partly drawn) [Example 26, 4-[(4R,10bS)-4-methyl-8-pyrrolidin-3-yl-3,4,6,10b-tetrahydro-1H-pyrazino[2,1-a]isoindol-2-yl]-1-methyl-1,8-naphthyridin-2-one] | 132
17 | C[C@@H]1CN(c2cc(=O)n(C)c3ncccc23)C[C@@H]2c3ccc(C4CCCNC4)cc3CN12 (stereo partly drawn) [Example 25, 4-[(4R,10bS)-4-methyl-8-(3-piperidyl)-3,4,6,10b-tetrahydro-1H-pyrazino[2,1-a]isoindol-2-yl]-1-methyl-1,8-naphthyridin-2-one] | 124
18 | C[C@@H]1CN(c2cc(=O)n(C)c3ncccc23)C[C@@H]2c3ccc([C@H]4C[C@H]5COC[C@@H](C4)N5)cc3CN12 [Example 28A, 4-[(4R,10bS)-4-methyl-8-(endo-3-oxa-9-azabicyclo[3.3.1]nonan-7-yl)-3,4,6,10b-tetrahydro-1H-pyrazino[2,1-a]isoindol-2-yl]-1-methyl-1,8-naphthyridin-2-one] | 153
19 | CO[C@H]1CCN(c2ccc3c(c2)CN2[C@H](C)CN(c4cc(=O)n(C)c5ncccc45)C[C@H]32)C[C@@H]1N [Example 9, 4-[(4R,10bS)-8-[(3S,4S)-3-amino-4-methoxy-1-piperidyl]-4-methyl-3,4,6,10b-tetrahydro-1H-pyrazino[2,1-a]isoindol-2-yl]-1-methyl-1,8-naphthyridin-2-one] | 266
